Source: patent US20250346600A1, “TRICYCLIC DERIVATIVES AND RELATED USES” (MOMA Therapeutics, Inc., priority 2023, published 2025)
Read-outs that look alike come from different tables or passages of the source.

How the values were obtained:
HT29 cells = assay: HT29 (MSS) 7 day viability, CellTiter Glo; assay type: cell-based; conditions: 7 days, read-out: HT29 (MSS) Viability 7 Day CTGAbs AC50
In short: (§1)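 Luminescence read-out (CellTiter Glo) after 7-day compound exposure at 37 °C. Seeding density 50 cells/well for HCT116, 500 cells/well for HT29. Background from cell-free medium wells; IC50 by four-parameter logistic fit, geometric mean of at least 2 replicates.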

[1] = target: T1, Full length WRN protein (aa 2-1432) (Homo sapiens (Human), UniProt Q14191); assay: WRN ATPase ADP-Glo biochemical assay, Assay Format B (100 μM ATP); conditions: 0.25 nM WRN, 100 nM C6.18 ssDNA, 60 min preincubation, read-out: ATPase ADPGlo AC50 (uM)- Assay Format B
T1 sequence (Q14191 2-1432): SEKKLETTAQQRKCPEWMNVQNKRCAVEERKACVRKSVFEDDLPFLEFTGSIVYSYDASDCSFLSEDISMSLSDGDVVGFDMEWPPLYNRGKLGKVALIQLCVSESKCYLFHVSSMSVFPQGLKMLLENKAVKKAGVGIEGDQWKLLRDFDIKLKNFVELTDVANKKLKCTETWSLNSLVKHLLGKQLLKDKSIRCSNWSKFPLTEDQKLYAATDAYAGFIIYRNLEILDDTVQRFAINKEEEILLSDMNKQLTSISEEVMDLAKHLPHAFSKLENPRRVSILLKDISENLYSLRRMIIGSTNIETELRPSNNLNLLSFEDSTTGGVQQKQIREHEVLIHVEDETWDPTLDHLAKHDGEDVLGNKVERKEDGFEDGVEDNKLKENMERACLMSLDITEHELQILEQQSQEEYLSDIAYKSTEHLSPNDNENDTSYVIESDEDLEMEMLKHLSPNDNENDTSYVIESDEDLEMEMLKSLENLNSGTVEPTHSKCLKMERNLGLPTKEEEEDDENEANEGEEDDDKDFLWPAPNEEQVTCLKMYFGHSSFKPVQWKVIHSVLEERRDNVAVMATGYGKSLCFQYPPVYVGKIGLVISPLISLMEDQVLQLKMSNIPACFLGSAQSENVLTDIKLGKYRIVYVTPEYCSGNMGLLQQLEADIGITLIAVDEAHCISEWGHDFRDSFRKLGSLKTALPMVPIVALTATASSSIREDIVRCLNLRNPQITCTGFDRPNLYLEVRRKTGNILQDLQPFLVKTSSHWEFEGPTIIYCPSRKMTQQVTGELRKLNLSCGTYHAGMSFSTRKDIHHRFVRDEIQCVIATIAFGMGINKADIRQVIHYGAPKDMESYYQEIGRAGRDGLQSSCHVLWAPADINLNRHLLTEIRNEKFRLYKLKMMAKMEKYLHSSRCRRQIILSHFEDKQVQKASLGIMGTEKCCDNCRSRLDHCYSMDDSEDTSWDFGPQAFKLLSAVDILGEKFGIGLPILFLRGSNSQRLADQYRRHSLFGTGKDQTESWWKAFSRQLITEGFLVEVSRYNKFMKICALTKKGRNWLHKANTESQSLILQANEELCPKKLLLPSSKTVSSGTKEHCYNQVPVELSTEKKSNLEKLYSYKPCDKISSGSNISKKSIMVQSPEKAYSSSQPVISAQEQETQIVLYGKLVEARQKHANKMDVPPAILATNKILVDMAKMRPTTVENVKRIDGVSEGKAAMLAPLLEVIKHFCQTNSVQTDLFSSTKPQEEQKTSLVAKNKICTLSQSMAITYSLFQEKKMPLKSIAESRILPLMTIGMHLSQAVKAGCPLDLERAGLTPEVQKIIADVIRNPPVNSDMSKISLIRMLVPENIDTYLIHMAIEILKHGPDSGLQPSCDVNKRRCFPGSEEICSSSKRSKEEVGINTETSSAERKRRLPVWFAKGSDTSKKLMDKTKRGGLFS

[2] = target: T1, Full length WRN protein (aa 2-1432); assay: WRN ATPase ADP-Glo biochemical assay, Assay Format A (10 μM ATP); conditions: 0.25 nM WRN, 100 nM C6.18 ssDNA, 30 min preincubation, read-out: ATPase ADPGlo AC50 (uM)- Assay Format A
In short: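 Sf9-expressed FLAG-AVI-TEV-tagged WRN (0.5 nM) preincubated 30 min with compound (11-point 3-fold dilution). Reaction started with 200 nM C6.18 39-mer ssDNA and 20 μM ATP (addition concentrations), run 30 min at room temperature. ADP measured by ADP-Glo luminescence; IC50 from four-parameter fit, geometric mean of ≥2 runs.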

HCT116 cells = assay: HCT116 (MSI) 7 day viability, CellTiter Glo; assay type: cell-based; conditions: 7 days, read-out: HCT116 (MSI) Viability 7 Day Abs AC50
In short: as §1

| SMILES | AC50 (HT29 cells; Homo sapiens, HT-29, 168 h) | AC50 [1] | AC50 [2] | AC50 (HCT116 cells; Homo sapiens, HCT-116, 168 h) | AC50 (HT29 cells) | AC50 (HCT116 cells) |
| --- | --- | --- | --- | --- | --- | --- |
| C=CC(=O)N1CCOc2nn(-c3ccc(C4CCC4)cc3O)c3c2C(C1)N(C(=O)c1ccc(Br)c2[nH]cnc12)CC3 (stereo not drawn) [Compound 39, 1-(5-(7-bromo-1H-benzo[d]imidazole-4-carbonyl)-2-(4-cyclobutyl-2-hydroxyphenyl)-2,3,4,5,5a,6,8,9-octahydro-7H-10-oxa-1,2,5,7-tetraazacycloocta[cd]inden-7-yl)prop-2-en-1-one] | > 3 µM | 0.015 to 0.055 µM | 0.0015 to 0.005 µM | 0.001 to 0.1 µM | – | – |
| C=CC(=O)N1CCOc2nn(-c3ccc(C4CCC4)cc3O)c3c2C(C1)N(C(=O)c1ccc2c(Br)n[nH]c2c1)CC3 (stereo not drawn) [Compound 40, 1-(5-(3-bromo-1H-indazole-6-carbonyl)-2-(4-cyclobutyl-2-hydroxyphenyl)-2,3,4,5,5a,6,8,9-octahydro-7H-10-oxa-1,2,5,7-tetraazacycloocta[cd]inden-7-yl)prop-2-en-1-one] | > 3 µM | 0.015 to 0.055 µM | < 0.0015 µM | 0.001 to 0.1 µM | – | – |
| C=CC(=O)N1CCOc2nn(-c3ccc(C4CCC4)cc3)c3c2C(C1)N(C(=O)c1ccc(Br)c2[nH]cnc12)CC3 (stereo not drawn) [Compound 41, 1-(5-(7-bromo-1H-benzo[d]imidazole-4-carbonyl)-2-(4-cyclobutylphenyl)-2,3,4,5,5a,6,8,9-octahydro-7H-10-oxa-1,2,5,7-tetraazacycloocta[cd]inden-7-yl)prop-2-en-1-one] | > 3 µM | 0.015 to 0.055 µM | 0.0015 to 0.005 µM | 0.001 to 0.1 µM | – | – |
| C=CC(=O)N1CCOc2nn(-c3ccc(C4CCC4)cc3)c3c2C(C1)N(C(=O)c1ccc(Br)c2[nH]ncc12)CC3 (stereo not drawn) [Compound 42, 1-(5-(7-bromo-1H-indazole-4-carbonyl)-2-(4-cyclobutylphenyl)-2,3,4,5,5a,6,8,9-octahydro-7H-10-oxa-1,2,5,7-tetraazacycloocta[cd]inden-7-yl)prop-2-en-1-one] | > 3 µM | 0.005 to 0.015 µM | < 0.0015 µM | 0.001 to 0.1 µM | – | – |
| C=CC(=O)N1CCOc2nn(-c3ccc(C45CC(C4)C5)cc3)c3c2C(C1)N(C(=O)c1ccc(Br)c2[nH]cnc12)CC3 (stereo not drawn) [Compound 43, 1-(2-(4-(bicyclo[1.1.1]pentan-1-yl)phenyl)-5-(7-bromo-1H-benzo[d]imidazole-4-carbonyl)-2,3,4,5,5a,6,8,9-octahydro-7H-10-oxa-1,2,5,7-tetraazacycloocta[cd]inden-7-yl)prop-2-en-1-one] | > 3 µM | 0.005 to 0.015 µM | < 0.0015 µM | 0.001 to 0.1 µM | – | – |
| C=CC(=O)N1CCOc2nn(-c3ccc(C(C)C)cc3O)c3c2C(C1)N(C(=O)c1ccc(Br)c2[nH]cnc12)CC3 (stereo not drawn) [Compound 44, 1-(5-(7-bromo-1H-benzo[d]imidazole-4-carbonyl)-2-(2-hydroxy-4-isopropylphenyl)-2,3,4,5,5a,6,8,9-octahydro-7H-10-oxa-1,2,5,7-tetraazacycloocta[cd]inden-7-yl)prop-2-en-1-one] | > 3 µM | 0.005 to 0.015 µM | < 0.0015 µM | 0.001 to 0.1 µM | – | – |
| C=CC(=O)N1CCOc2nn(-c3ccc(C(C)C)cc3O)c3c2C(C1)N(C(=O)c1cnc(C(F)(F)F)c(O)c1)CC3 (stereo not drawn) [Compound 45, 1-(2-(2-hydroxy-4-isopropylphenyl)-5-(5-hydroxy-6-(trifluoromethyl)nicotinoyl)-2,3,4,5,5a,6,8,9-octahydro-7H-10-oxa-1,2,5,7-tetraazacycloocta[cd]inden-7-yl)prop-2-en-1-one] | > 3 µM | 0.015 to 0.055 µM | 0.0015 to 0.005 µM | > 1 µM | – | – |
| C=CC(=O)N1CCOc2nn(-c3ccc(C(C)C)cc3)c3c2C(C1)N(C(=O)c1ccc(Br)c2[nH]cnc12)CC3 (stereo not drawn) [Compound 46, 1-(5-(7-bromo-1H-benzo[d]imidazole-4-carbonyl)-2-(4-isopropylphenyl)-2,3,4,5,5a,6,8,9-octahydro-7H-10-oxa-1,2,5,7-tetraazacycloocta[cd]inden-7-yl)prop-2-en-1-one] | > 3 µM | 0.015 to 0.055 µM | 0.0015 to 0.005 µM | 0.001 to 0.1 µM | – | – |
| C=CC(=O)N1CCOc2nn(-c3ccc(C(C)C)cc3)c3c2C(C1)N(C(=O)c1cnc(C(F)(F)F)c(O)c1)CC3 (stereo not drawn) [Compound 47, 1-(5-(5-hydroxy-6-(trifluoromethyl)nicotinoyl)-2-(4-isopropylphenyl)-2,3,4,5,5a,6,8,9-octahydro-7H-10-oxa-1,2,5,7-tetraazacycloocta[cd]inden-7-yl)prop-2-en-1-one] | > 3 µM | > 0.055 µM | 0.005 to 0.015 µM | > 1 µM | – | – |
| C=CC(=O)N1CCOc2nn(-c3ccc(C4CC4)cc3)c3c2C(C1)N(C(=O)c1ccc(Br)c2[nH]cnc12)CC3 (stereo not drawn) [Compound 49, 1-(5-(7-bromo-1H-benzo[d]imidazole-4-carbonyl)-2-(4-cyclopropylphenyl)-2,3,4,5,5a,6,8,9-octahydro-7H-10-oxa-1,2,5,7-tetraazacycloocta[cd]inden-7-yl)prop-2-en-1-one] | > 3 µM | 0.015 to 0.055 µM | < 0.0015 µM | 0.001 to 0.1 µM | – | – |
| C=CC(=O)N1CCOc2nn(-c3ccc(C4CC4)cc3)c3c2C(C1)N(C(=O)c1ccc(C(F)(F)F)c2[nH]ncc12)CC3 (stereo not drawn) [Compound 50, 1-(2-(4-cyclopropylphenyl)-5-(7-(trifluoromethyl)-1H-indazole-4-carbonyl)-2,3,4,5,5a,6,8,9-octahydro-7H-10-oxa-1,2,5,7-tetraazacycloocta[cd]inden-7-yl)prop-2-en-1-one] | > 3 µM | 0.015 to 0.055 µM | 0.0015 to 0.005 µM | 0.1 to 0.25 µM | – | – |
| C=CC(=O)N1CC(C)Oc2nn(-c3ccc(C(C)C)cc3)c3c2C(C1)N(C(=O)c1ccc(Br)c2[nH]cnc12)CC3 (stereo not drawn) [Compound 52, 1-(5-(7-bromo-1H-benzo[d]imidazole-4-carbonyl)-2-(4-isopropylphenyl)-9-methyl-2,3,4,5,5a,6,8,9-octahydro-7H-10-oxa-1,2,5,7-tetraazacycloocta[cd]inden-7-yl)prop-2-en-1-one] | > 3 µM | > 0.055 µM | 0.005 to 0.015 µM | 0.25 to 0.5 µM | – | – |
| C=CC(=O)N1CC(C)Oc2nn(-c3ccc(C(C)C)cc3)c3c2C(C1)N(C(=O)c1ccc(Br)c2[nH]cnc12)CC3 (stereo not drawn) [Compound 53, 1-(5-(7-bromo-1H-benzo[d]imidazole-4-carbonyl)-2-(4-isopropylphenyl)-9-methyl-2,3,4,5,5a,6,8,9-octahydro-7H-10-oxa-1,2,5,7-tetraazacycloocta[cd]inden-7-yl)prop-2-en-1-one] | – | > 0.055 µM | 0.015 to 0.055 µM | – | > 3 µM | 0.5 to 1 µM |
| C=CC(=O)N1CC(F)Oc2nn(-c3ccc(C(C)C)cc3)c3c2C(C1)N(C(=O)c1ccc(Br)c2[nH]cnc12)CC3 (stereo not drawn) [Compound 54, 1-(5-(7-bromo-1H-benzo[d]imidazole-4-carbonyl)-9-fluoro-2-(4-isopropylphenyl)-2,3,4,5,5a,6,8,9-octahydro-7H-10-oxa-1,2,5,7-tetraazacycloocta[cd]inden-7-yl)prop-2-en-1-one] | > 3 µM | 0.005 to 0.015 µM | < 0.0015 µM | – | – | > 1 µM |
| C=CC(=O)N1CC(F)Oc2nn(-c3ccc(C(C)C)cc3)c3c2C(C1)N(C(=O)c1ccc(Br)c2[nH]cnc12)CC3 (stereo not drawn) [Compound 55, 1-(5-(7-bromo-1H-benzo[d]imidazole-4-carbonyl)-9-fluoro-2-(4-isopropylphenyl)-2,3,4,5,5a,6,8,9-octahydro-7H-10-oxa-1,2,5,7-tetraazacycloocta[cd]inden-7-yl)prop-2-en-1-one] | – | 0.015 to 0.055 µM | < 0.0015 µM | – | > 3 µM | 0.1 to 0.25 µM |
| C=CC(=O)N1CCc2nn(-c3ccc(C(C)C)c(F)c3N)c3c2C(C1)N(C(=O)c1cnc(C(F)(F)F)c(O)c1)CC3 (stereo not drawn) [Compound 57, 1-(2-(2-amino-3-fluoro-4-isopropylphenyl)-5-(5-hydroxy-6-(trifluoromethyl)nicotinoyl)-2,3,4,5,5a,6,8,9-octahydro-7H-1,2,5,7-tetraazabenzo[cd]azulen-7-yl)prop-2-en-1-one] | > 3 µM | 0.015 to 0.055 µM | 0.0015 to 0.005 µM | 0.1 to 0.25 µM | – | – |
| C=CC(=O)N1CCc2nn(-c3ccc(C(C)C)cc3)c3c2C(C1)N(C(=O)c1ccc(C(F)(F)F)c(=O)[nH]1)CC3 (stereo not drawn) [Compound 58, 6-(7-acryloyl-2-(4-isopropylphenyl)-3,4,5,5a,6,7,8,9-octahydro-2H-1,2,5,7-tetraazabenzo[cd]azulene-5-carbonyl)-3-(trifluoromethyl)pyridin-2(1H)-one] | > 3 µM | 0.015 to 0.055 µM | 0.0015 to 0.005 µM | 0.1 to 0.25 µM | – | – |
| C=CC(=O)N1CCc2nn(-c3ccc(C(C)C)cc3)c3c2C(C1)N(C(=O)c1cnc(C(F)(F)F)c(OCC(N)=O)c1)CC3 (stereo not drawn) [Compound 59, 2-((5-(7-acryloyl-2-(4-isopropylphenyl)-3,4,5,5a,6,7,8,9-octahydro-2H-1,2,5,7-tetraazabenzo[cd]azulene-5-carbonyl)-2-(trifluoromethyl)pyridin-3-yl)oxy)acetamide] | > 3 µM | 0.015 to 0.055 µM | 0.0015 to 0.005 µM | 0.1 to 0.25 µM | – | – |
